Assay results reported in PubChem BioAssay (NCI).
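All cell lines were grown in 96-well plates and treated with compound for 48 hours. Abbreviation: GI50, concentration required for 50% inhibition of growth. TGI marks complete inhibition of growth.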

Tests used:
Experiment in all cases: inhibition of tumour cell growth, NCI panel, 48 h
SN12C renal = system: SN12C renal
NCI-H522 lung = system: NCI-H522 lung
SF-539 CNS = system: SF-539 CNS
NCI-H226 lung = system: NCI-H226 lung
LOX IMVI melanoma = system: LOX IMVI melanoma
NCI/ADR-RES ovarian = system: NCI/ADR-RES ovarian
EKVX NSCLC = system: EKVX NSCLC
SK-MEL-5 melanoma = system: SK-MEL-5 melanoma
786-0 renal = system: 786-0 renal

Row | Structure (SMILES) | TGI (SN12C renal) [µM] | TGI (NCI-H522 lung) [µM] | TGI (SF-539 CNS) [µM] | TGI (NCI-H226 lung) [µM] | TGI (LOX IMVI melanoma) [µM] | TGI (NCI/ADR-RES ovarian) [µM] | TGI (EKVX NSCLC) [µM] | TGI (SK-MEL-5 melanoma) [µM] | TGI (786-0 renal) [µM] | GI50 (NCI/ADR-RES ovarian) [µM]
1 | O=[N+]([O-])c1ccc(Nc2cccc3c2[nH]c2c(-c4ccccc4)nccc23)c([N+](=O)[O-])c1 | > 100 | > 100 | > 100 | > 100 | > 100 | > 100 | > 100 | > 100 | – | –
2 | ClC1=C(Cl)C2OC3C=CCC3OC2C(Cl)=C1Cl (configuration not stated) | – | > 100 | > 100 | > 100 | > 100 | > 100 | > 100 | > 100 | > 100 | –
3 | O=C(O)c1cccc(S(=O)(=O)NN2C(=O)CSC2c2c(O)ccc3ccccc23)c1 (configuration not stated) | > 100 | 77.6 | 55.8 | > 100 | 60 | 76.9 | > 100 | 62.5 | > 100 | –
4 | Cn1c(-c2c(C3=CC(=O)N(c4ccccc4)C3=O)c3ccccc3n2C)cc2ccccc21 | > 100 | > 100 | > 100 | > 100 | > 100 | > 100 | > 100 | > 100 | > 100 | –
5 | COc1ccc(C2=NN(c3nsc4ccccc34)C(=O)CC2)cc1 | > 100 | – | > 100 | – | > 100 | – | > 100 | > 100 | – | –
6 | COc1ccc(/C=C2\OC(=O)C(Cl)=C2c2ccc(OC)c(Cl)c2)cc1 | – | 79 | 33.2 | – | > 100 | 52.6 | 51.8 | 48.6 | 35.5 | –
7 | CC1=C(C(=O)NCc2ccccc2)C(c2ccco2)C(C(=O)NCc2ccccc2)=C(C)N1 | > 100 | > 100 | > 100 | > 100 | > 100 | – | > 100 | > 100 | – | –
8 | CC(C)=C=CP(=O)(O)c1ccccc1 | > 100 | > 100 | > 100 | > 100 | > 100 | > 100 | > 100 | > 100 | > 100 | –
9 | O=S(=O)(O)c1cc(N=[N+]([O-])c2ccc(N=Nc3ccccc3)cc2S(=O)(=O)O)ccc1/C=C/c1ccc(N=[N+]([O-])c2ccc(N=Nc3ccccc3)cc2S(=O)(=O)O)cc1S(=O)(=O)O | > 100 | > 100 | > 31.6 | > 100 | > 100 | > 100 | > 100 | > 100 | – | –
10 | N#Cc1c(N2CCCC2)nsc1Nc1ccccc1 | > 100 | – | > 100 | > 100 | > 100 | > 100 | > 100 | > 100 | > 100 | –
11 | CC(C)N1[C@@H]2CCCC[C@H]2N(C(C)C)[P+]1=O | > 100 | > 100 | > 100 | > 100 | – | > 100 | > 100 | > 100 | > 100 | –
12 | CSc1nc(-c2ccccc2)nc(=[N+]2CCOCC2)s1 | > 100 | 84.1 | > 100 | > 100 | > 100 | – | > 100 | > 100 | > 100 | –
13 | CC(C)(C)CC(C)(C)NCC(O)COc1ccc(C(C)(C)c2ccc(OCC(O)CNC(C)(C)CC(C)(C)C)cc2)cc1 (configuration not stated) | 3.04 | 3.02 | 3.33 | 3.51 | 1.35 | 2.84 | 3.08 | 2.67 | 2.77 | 1.41
14 | Cc1ccc2c(c1)Nc1ccccc1P2(=O)O | > 100 | > 100 | > 100 | > 100 | > 100 | > 100 | > 100 | > 100 | > 100 | –
15 | CCN(CC)C(=O)c1cc([N+](=O)[O-])c(=O)n2c1[nH]c1ccccc12 | > 100 | > 100 | > 100 | > 100 | > 100 | > 100 | > 100 | > 100 | > 100 | –
16 | CCOC(=O)Cc1cc(=O)[nH]c(-n2[nH]c(C)c(CCO)c2=O)n1 | > 100 | > 100 | > 100 | > 100 | > 100 | > 100 | > 100 | > 100 | > 100 | –
17 | Cc1ccc(S(=O)(=O)N/N=C\c2c3ccccc3[n+](C)c3ccccc23)cc1 | > 100 | > 100 | 54 | 60.1 | 52.9 | – | > 100 | 98.5 | > 100 | –
18 | Cc1ccc2c(=O)cc(-c3cccc(F)c3)[nH]c2n1 | > 100 | 0.0504 | 0.78 | 0.475 | > 100 | – | > 100 | 2.16 | > 100 | –
19 | Nc1ncc2c(n1)-c1ccccc1OC2 | > 100 | > 100 | > 100 | > 100 | > 100 | > 100 | > 100 | > 100 | – | –
20 | COc1cccc(N(CN2C(=O)CCC2OC)C(C)=O)c1 (configuration not stated) | > 100 | – | > 100 | > 100 | > 100 | > 100 | – | > 100 | > 100 | –
